Assay results taken from publication PMC12730730, “CAPE Derivatives as Potent Agents for Induction of Osteogenic Differentiation in DPSCs and Biomaterial Development” (Biomedicines, 2025).
Entries after “also recorded” stand apart in the source; their conditions may differ.

How the values were obtained:
[1] = Kinetic of chemical hydrolysis in 0.02 M phosphate buffer, HPLC; format: physicochemical; conditions: for half-life: phosphate buffer
Protocol: For compounds 1a and 1d, the chromatographic analyses were performed using a 1260 Infinity II HPLC (Agilent, Santa Clara, CA, USA) consisting of a 1260 Infinity II Quaternary Pump (model G7111A), 1260 Infinity II auto-sampler (model G7129A), a 1260 Infinity II Multicolumn Thermostat (model G7116A), and a 1260 Infinity II Diode Array Detector (model G7115A) equipped with Poroshell 120 EC-C18 (150 × 4.6 mm i.d., particle size 4 µm, Agilent), operating at 20 °C.
Samples were run using a mixture of water and acetonitrile, enriched with trifluoroacetic acid (0.1% v/v) as mobile phase, in a gradient elution mode starting from 90% to 10% of water over 15 min (Table 2) at a flow rate of 0.8 mL/min. Stock solutions (10 mg/mL) were prepared by dissolving the exact amount of each compound in DMSO and acetonitrile (1:1), and then diluted with acetonitrile to reach 250 µg/mL concentration and analyzed by HPLC, setting the UV-detector at 254 nm.
CAPE, 1a and 1d stock solutions (10 mg/mL) were diluted in prewarmed (37 ± 0.5 °C) PBS solution to reach 10^−4 M concentration (50 mL); these conditions were used to initiate the reaction. At established time points, samples of 250 µL were withdrawn, filtered, and analyzed by HPLC. The pseudo-first-order rate constant (kobs) for the compound hydrolysis was calculated from the slops of the linear plots of ln (% residual compound) against time. The samples were analyzed in triplicate.

[2] = test system: SAOS-2 osteoblastic cell lines; conditions: cited from earlier work
[3] = test system: calvarial-derived cells; design: method as in Jun et al. 54; conditions: long-term cultures of calvarial-derived cells; ref Jun et al. 54; cited from earlier work
[4] = test system: osteoblastic cells; design: method as in PMID 17979115; conditions: cited from earlier work
[5] = test system: DPSCs; assay: Crystal violet cell viability assay of DPSCs in osteogenic medium; format: cell-based; conditions: 0.5, 1 and 5 µM; 3, 7, 14, 21 and 28 days; vs Control (diff)
Protocol: Dental pulp stem cells (DPSCs) were cultured in α-MEM medium (Merck, Darmstadt, Germany), supplemented with 10% fetal bovine serum (FBS) and 1% penicillin/streptomycin (Euroclone S.p.A., Milan, Italy). The cells were purchased from Lonza (Lonza Group Ltd., Basel, Switzerland) and kept at 37 °C and 5% CO2.
Cell viability (relative numbers compared to control cells) was determined by a crystal violet assay. After reaching the growth exponential phase, DPSCs were seeded into 48-well culture plates at a density of 8 × 10^3 cells per well. After 24 h, different concentrations (ranging from 0 to 5 µM) of each compound (1a, 1d, 2a and 2d) were added to DPSCs in an osteogenic medium, whereas cells cultured in the same osteogenic medium without CAPE derivatives served as control. After 3, 7, 14, 21, and 28 days, the medium was removed from each well, a wash with PBS was performed and cell were then fixed with glutaraldehyde (1%), and stained at room temperature with a crystal violet solution (0.02%) (both from Thermo Fisher Scientific, Waltham, MA, USA). After 30 min, the cells were rinsed with tap water, and bound crystal violet was dissolved in 70% ethanol. Then, absorbance was read at 600 nm with a spectrophotometer (Multiskan GO, Thermo Fisher Scientific, Waltham, MA, USA). The optical density readings were used to indicate cell survival relative to untreated cultures.

[6] = test system: DPSCs; assay: Alizarin Red S staining, extracellular mineralized matrix deposition; format: cell-based; conditions: for Extracellular mineralized matrix deposition compared to non-treated cells (Alizarin Red): 28 days in differentiation medium, 0.5, 1 and 5 µM; for Concentrations at which matrix deposition / mineralization is enhanced: 28 days, tested 0.5, 1 and 5 µM
Protocol: (§1) DPSCs were seeded at a density of 3.5 × 10^4 in 12-well plates in the presence of differentiation medium, which consists of complete α-MEM supplemented with 10 nM dexamethasone, 10 mM β-glycerophosphate and 0.2 mM ascorbic acid phosphate (all purchased from Sigma-Aldrich, St. Louis, MO, USA). At the established experimental times (3, 7, 14, 21 and 28 days), cells and/or supernatants were collected for further analyses.
Alizarin red staining was performed after 28 days, by washing twice with PBS with Ca^2+/Mg^2+ each well, and fixing the cell monolayer of DPSCs in paraformaldehyde 4% for 15 min at room temperature. After washing twice with deionized water, 40 mM Alizarin Red S solution (Sigma-Aldrich) was added to each well and left at room temperature for 20 min on a shaker, followed by several rinses with deionized water in order to eliminate dye excess. For the spectrophotometric evaluation of calcium level deposits, 800 µL/well of 10% acetic acid was added to each well and then incubated for 30 min in agitation. Wells were then scraped and the sample containing calcium deposits was collected and vortexed. After the addition of hot mineral oil (Sigma-Aldrich), the samples were incubated on ice for 5 min and then centrifuged at 20,000× g for 15 min. After the removal of the supernatant, 10% ammonium hydroxide was added, and the optical density of 150 µL aliquots of this solution was measured at 405 nm through a microplate reader (Multiskan GO, Thermo Fisher Scientific).

[7] = test system: Alkaline phosphatase (ALP) activity in DPSCs; assay: Alkaline phosphatase (ALP) activity in supernatants of differentiating DPSCs; format: cell-based; conditions: 0.5 µM; 3, 7, 14, 21 and 28 days; vs control (diff)
Protocol: as §1
A colorimetric Alkaline Phosphate Assay Kit (Abcam, Cambridge, UK) was used following manufacturer’s instructions. Briefly, 50 µL of 5 mM p-nitrophenyl phosphate (pNPP) was added to 80 µL of each supernatant and then incubated for 1 h at room temperature in the dark. After the addition of 20 µL of stopping solution, the absorbance was read at 405 nm wavelength through a microplate reader (Multiskan GO, Thermo Fisher Scientific). The ALP activity (mU/mL/min) was calculated in accordance with the manufacturer’s protocol.

[8] = test system: BMP2; assay: Real-time RT-PCR, BMP2 gene expression in DPSCs; format: cell-based; conditions: 0.5 µM, vs Control (diff)
Protocol: (§2) After 7, 14, and 21 days of treatment, DPSCs were collected and RNA was extracted by PureLink® RNA Mini Kit (Life Technologies, Carlsbad, CA, USA). An amount of 300 µL of lysis buffer supplied with 1% of 2-mercaptoethanol and then 300 µL of 70% v/v ethanol were added to each cell pellet, and samples were transferred into the Spin Cartridge for RNA extraction and purification. After washing with Wash Buffer supplied by the kit, samples were incubated for 15 min with 80 µL of DNase mixture (On-column PureLink® DNase Treatment, Thermo Fisher Scientific) to remove contaminating DNA. RNA extracted from each sample was eluted in 30 µL of Nuclease-Free Water. RNA concentration (ng/µL) was determined through Qubit® RNA BR Assay Kits (Thermo Fisher Scientifc).
(§3) A total of 1 µg of RNA was reverse-transcribed by high-capacity cDNA Reverse Transcription Kit (Life Technologies). Samples were incubated in a thermal cycler at 25 °C for 10 min, 37 °C for 2 h, and 85 °C for 5 min.
(§4) For all the examined mRNAs, gene expression was determined by quantitative PCR using PowerUpTM SYBRTM Green Master Mix (2×) (Thermo Fisher Scientific). Each amplification reaction was performed in a MicroAmp® Optical 96-well Reaction Plate (Life Technologies, Carlsbad, CA, USA) in a reaction volume of 20 µL made up of 10 µL of SYBR Green, 1 µM of each primer (stock solution 100 µM), 10 ng of cDNA and Nuclease-Free Water.
(§5) The run consisted of 50 °C for 2 min, 95 °C for 2 min, 40 cycles of amplification at 95 °C for 15 s and 60 °C for 1 min in QuantStudio 3 (Thermo Fisher Scientific). QuantStudio™ Design & Analysis Software v1.5.1 (Thermo Fisher Scientific) was used to elaborate gene expression data. The authenticity of the PCR products was verified by melt curve analysis. Each gene expression value was normalized to the expression level of 18S. The fold changes of the investigated genes were expressed in relation to the level of 18S at different time points. The relative abundance of mRNA (relative quantification) was quantified using the comparative ^2−∆∆Ct method.

[9] = test system: Osterix (SP7); assay: Real-time RT-PCR, Osterix (SP7) gene expression in DPSCs; format: cell-based; conditions: 0.5 µM, vs control sample
Protocol: as §2, §3, §4, §5

[10] = test system: Collagen type I; assay: ELISA of collagen type I release in DPSC supernatants; format: cell-based, human; conditions: 0.5 µM; 7, 14 and 21 days; normalized on crystal violet values
Protocol: as §1
The release of collagen type I in cell supernatants was measured by a Human Collagen Type 1 ELISA kit (Cosmo Bio Co., Ltd., Tokyo, Japan; cat. no. ACE-EC1-E105-EX). The absorbance was measured at 450 nm spectrophotometrically (Multiskan GO, Thermo Fisher Scientific). The concentration of collagen type I (µg/mL) was calculated using a standard curve generated with specific standards provided by the manufacturers and normalized with the crystal violet values.

[11] = Thermal stability of the solid compounds, 1H-NMR before and after heating; format: physicochemical; conditions: 20 min at 100 °C, water bath, solid compound
Protocol: To ensure the suitability of compounds 1a and 1d for adsorption onto biomaterials, their thermal stability was confirmed. Initially, ^1H-NMR spectra were acquired for the compounds. Subsequently, they were subjected to heating for 20 min at 100 °C by immersing glass tubes containing the solid compounds in a water bath. Following the heating process, their ^1H-NMR spectra were reacquired and compared with the initial spectra to assess any alterations.

[12] = design: method as in PMID 39054610; conditions: 30 min at 50 °C; cited from earlier work

Row | Compound | Kobs ([1]; pH 4.5, 37 °C) | t1/2 ([1]; pH 4.5, 37 °C) | Kobs ([1]; pH 7.4) | half-life ([1]; pH 4.5, pH 4.5, 37 °C) | half-life ([1]; pH 7.4, pH 7.4) | Cell viability / toxicity towards DPSCs [5] | Extracellular mineralized matrix deposition compared to non-treated cells (Alizarin Red) [6] | Concentrations at which matrix deposition / mineralization is enhanced [6] | ALP activity compared to non-treated cells [7] | BMP2 relative gene expression ([8]; 21 days) | Osx (SP7) relative gene expression ([9]; 21 days) | Collagen type I release with respect to the control sample [10] | Thermal stability (identical 1H NMR spectra before and after heat) [11] | Thermal stability (consistent 1H NMR spectra before and after heat) [12] | further results
1 | O=C(/C=C/c1ccc(O)c(O)c1)OCCc1ccccc1 [CAPE, caffeic acid phenethyl ester] | 0.006 (±0.0009) h^−1 | 117.5 (±2.10) h | 0.018 (±0.004) h^−1 | 117 h | 38.5 h |  |  |  |  |  |  |  |  |  | Cytotoxicity at similar concentrations (0.5-5 µM range) ([2]; SAOS-2 osteoblastic cell lines): does not exhibit cytotoxicity; Concentrations that reduce cell viability [2]: above 10 µM; Concentrations at which toxicity is reported [3]: above 17.6 µM; ECM mineralization ([4]; CAPE at 10 μM): reduction in ECM mineralization; ECM mineralization compared to the control group ([4]; CAPE at concentrations up to 100 nM): greater mineralization
2 | O=C(/C=C/c1ccccc1)Oc1cccc2cccnc12 [compound 1a] | 0.009 (±0.0008) h^−1 |  |  | 80.6 h |  | no toxicity | more effective in enhancing matrix deposition | across all tested concentrations | significantly higher than non-treated cells at all time points | 2.2 fold | 2.26 fold | higher quantity of Collagen type I | stable | stable | BMP2 relative gene expression ([8]; 14 days): 1.2 fold; Osx (SP7) relative gene expression ([9]; 14 days): 4.8 fold; t1/2 ([1]; pH 7.4): no degradation; also recorded: stable
3 | O=C(/C=C/c1ccc(O)c(O)c1)Oc1cccc2cccnc12 [compound 1d] |  | no degradation; also recorded: stable | 0.033 (±0.002) h^−1 |  | 21.2 h | no toxicity | more effective in enhancing matrix deposition | only enhance mineralization at the lowest concentration | significantly higher than non-treated cells at all time points |  | 2.19 fold | higher quantity of Collagen type I | stable | stable | BMP2 relative gene expression ([8]; 7 days): significantly increased BMP2 expression
4 | O=C(/C=C/c1ccccc1)Nc1cccc2cccnc12 [compound 2a] |  |  |  |  |  | no toxicity | no significant changes |  |  |  |  |  |  |  | 
5 | O=C(/C=C/c1ccc(O)c(O)c1)Nc1cccc2cccnc12 [compound 2d] |  |  |  |  |  | no toxicity | more effective in enhancing matrix deposition | only enhance mineralization at the lowest concentration | significantly higher than non-treated cells at all time points | higher BMP2 expression only after 21 days |  |  |  |  | 
